Data taken from patent US7468377B2, “Imidazopyridine-derivatives as inductible no-synthase inhibitors” (Altana Pharma AG, priority 2003, dated 2008).

Experiments:
[1] = target: human inducible NO-synthase (Homo sapiens, UniProt P35228); assay: Measurement of inducible NO-synthase activity ([3H]arginine conversion); type: biochemical; conditions: crude cytosolic fraction containing human inducible NO-synthase; 0.1 μM arginine; 45 to 60 min at 37° C; read-out: Inhibition of iNOS activity [measured as −logIC50 (mol/l)] (converted)
Protocol: Measurement of Inducible NO-Synthase Activity
The assay is performed in 96-well microtiter F-plates (Greiner, Frickenhausen, FRG) in a total volume of 100 μl in the presence of 100 nM calmodulin, 226 μM CaCl2, 477 μM MgCl2, 5 μM flavin-adenine-dinucleotide (FAD), 5 μM flavin mononucleotide (FMN), 0.1 mM NADPH, 7 mM glutathione, 10 μM BH4 and 100 mM HEPES pH 7.2. Arginine concentrations are 0.1 μM for enzyme inhibition experiments. 150000 dpm of [^3H]arginine are added to the assay mixture. Enzyme reaction is started by the addition of 4 μg of a crude cytosolic fraction containing human inducible NO-synthase and the reaction mixture is incubated for 45 to 60 min at 37° C. Enzyme reaction is stopped by adding 10 μl of 2M MES-buffer pH 5,0. 50 μl of the incubation mixture are transferred into a MADP N65 filtration microtiter plate (Millipore, Eschborn, FRG) containing already 50 μl of AG-50W-X8 cation exchange resin (Biorad, München, FRG). The resin in the Na loaded form is preequilibrated in water and 70 μl (corresponding to 50 μl dry beads) are pipetted under heavy stirring with a 8 channel pipette into the filtration plate. After pipetting 50 μl of the enzyme reaction mixture onto the filtration plates, the plates are placed on a filtration manifold (Porvair, Shepperton, UK) and the flow through is collected in Pico scintillation plates (Packard, Meriden, Conn.). The resin in the filtration plates is washed with 75 μl of water (1×50 μl and 1×25 μl) which is also collected in the same plate as the sample. The total flow through of 125 μl is mixed with 175 μl of Microscint-40 scintillation cocktail (Packard) and the scintillation plate is sealed with TopSeal P-foil (Packard). Scintillation plates are counted in a szintillation counter.
For the measurement of inducible NO-synthase-inhibiting potencies of compounds increasing concentrations of inhibitors were included into the incubation mixture. IC50-values were calculated from the percent inhibition at given concentrations by nonlinear least square fitting.
The inhibitory values determined for the compounds according to the invention follow from the following table A, in which the compound numbers correspond to the example numbers.

IC50 [1] | melting point | Structure (SMILES)
14.8 nM | 217 to 218 °C | COc1ccnc(CCc2nc3cc(-c4ccc(S(=O)(=O)N(C)C)cc4)cnc3[nH]2)c1 [compound 1, 4-{2-[2-(4-Methoxypyridin-2-yl)ethyl]-3H-imidazo[4,5-b]pyridin-6-yl}-N,N-dimethyl-benzenesulfonamide]
35.5 nM | 127 to 129 °C | CCN(CC)S(=O)(=O)c1ccc(-c2cnc3[nH]c(CCc4cc(OC)ccn4)nc3c2)cc1 [compound 2, N,N-Diethyl-4-{2-[2-(4-methoxypyridin-2-yl)ethyl]-3H-imidazo-[4,5-b]pyridin-6-yl}benzenesulfonamide]
13.8 nM | 225 to 227 °C | CNS(=O)(=O)c1ccc(-c2cnc3[nH]c(CCc4cc(OC)ccn4)nc3c2)cc1 [compound 3, 4-{2-[2-(4-Methoxypyridin-2-yl)ethyl]-3H-imidazo[4,5-b]pyridin-6-yl}-N-methyl-benzenesulfonamide]
14.8 nM | 216 to 218 °C | COc1ccnc(CCc2nc3cc(-c4ccc(S(N)(=O)=O)cc4)cnc3[nH]2)c1 [compound 4, 4-{2-[2-(4-Methoxypyridin-2-yl)ethyl]-3H-imidazo[4,5-b]pyridin-6-yl}-benzenesulfonamide]
24 nM | 214 to 216 °C | CCNS(=O)(=O)c1ccc(-c2cnc3[nH]c(CCc4cc(OC)ccn4)nc3c2)cc1 [compound 5, N-Ethyl-4-{2-[2-(4-methoxypyridin-2-yl)ethyl]-3H-imidazo-[4,5-b]pyridin-6-yl}benzenesulfonamide]
21.4 nM | 211 to 212 °C | COc1ccnc(CCc2nc3cc(-c4ccc(S(=O)(=O)N(C)C)c(F)c4)cnc3[nH]2)c1 [compound 6, 2-Fluoro-4-{2-[2-(4-methoxypyridin-2-yl)ethyl]-3H-imidazo[4,5-b]pyridin-6-yl}-N,N-dimethyl-benzenesulfonamide]
